Test results published in ChEMBL document CHEMBL1201862, “PubChem BioAssay data set” (2004).
Calls of active or inactive are those of the source.

Legend:
[1] = cells; type: functional, cell-based
[2] = biological target: T1, Trace amine-associated receptor 1 (Homo sapiens, UniProt Q96RJ0); experiment: Fluorescence-based cell-based high throughput dose response assay to identify agonists of the human trace amine associated receptor 1 (TAAR1).; type: functional
T1 sequence (Q96RJ0 whole entry): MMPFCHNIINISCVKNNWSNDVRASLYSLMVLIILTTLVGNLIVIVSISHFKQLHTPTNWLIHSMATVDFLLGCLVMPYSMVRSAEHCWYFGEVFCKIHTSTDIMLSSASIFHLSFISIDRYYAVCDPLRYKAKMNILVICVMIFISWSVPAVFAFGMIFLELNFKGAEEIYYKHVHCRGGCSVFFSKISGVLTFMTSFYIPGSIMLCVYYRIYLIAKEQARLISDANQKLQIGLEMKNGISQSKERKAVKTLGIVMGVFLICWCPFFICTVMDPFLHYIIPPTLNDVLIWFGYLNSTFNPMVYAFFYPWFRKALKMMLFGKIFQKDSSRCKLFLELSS

[3] = biological target: T1, Trace amine-associated receptor 1; experiment: Counterscreen for agonists of the human trace amine associated receptor 1 (hTAAR1): Fluorescence-based cell-based high throughput dose response assay to identify hTAAR1 agonist that also desensitize TAAR1 receptor response.; type: functional
[4] = cells; type: functional, cell-based; remark: listed apart in the source
[5] = biological target: Paired box protein Pax-8 (Homo sapiens, UniProt Q06710); experiment: inhibitors of PAX8-driven TPO luciferase reporter, dose response, RMG-I cells, cherry-pick (AID 687027); type: functional, cell-based;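 also: luciferase reporter driven by Pax8 target thyroperoxidase promoter measured by SteadyGlo luminescence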
Chain of Paired box protein Pax-8 (Q06710 whole entry): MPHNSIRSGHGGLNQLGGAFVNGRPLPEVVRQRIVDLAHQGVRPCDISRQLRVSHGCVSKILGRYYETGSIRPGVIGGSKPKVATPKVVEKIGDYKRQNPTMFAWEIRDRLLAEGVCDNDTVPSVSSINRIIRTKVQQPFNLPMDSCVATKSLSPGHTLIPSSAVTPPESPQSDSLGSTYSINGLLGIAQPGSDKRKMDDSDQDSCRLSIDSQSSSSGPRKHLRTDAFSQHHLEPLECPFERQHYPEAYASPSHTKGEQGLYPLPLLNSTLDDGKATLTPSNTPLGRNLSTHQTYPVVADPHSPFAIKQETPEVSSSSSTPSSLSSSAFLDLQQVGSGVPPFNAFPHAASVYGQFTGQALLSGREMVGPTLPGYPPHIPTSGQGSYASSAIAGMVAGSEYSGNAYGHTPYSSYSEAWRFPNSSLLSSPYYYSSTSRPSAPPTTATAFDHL

[6] = A2780 ovarian cancer cell cytotoxicity, dose response, cytotoxicity control, plate reader, dry powder samples (AID 743046); type: functional, cell-based
[7] = NIH:OVCAR-3 ovarian cancer cell cytotoxicity, dose response, PAX8 inhibitor project, plate reader, dry powder samples (AID 743044); type: functional, cell-based
[8] = cytotoxicity in OVCAR8 ovarian cancer cells, dose response, PAX8 project, cell-based, plate reader, dry powder samples (AID 743197); type: functional; conditions: OVCAR-8
[9] = biological target: T2, Replicative DNA helicase DnaB (Mycobacterium tuberculosis, UniProt P9WMR3); experiment: DnaB intein splicing inhibitors, dose response, biochemical, cell-free fluorescence (AID 449749); type: functional
T2 sequence (P9WMR3 whole entry): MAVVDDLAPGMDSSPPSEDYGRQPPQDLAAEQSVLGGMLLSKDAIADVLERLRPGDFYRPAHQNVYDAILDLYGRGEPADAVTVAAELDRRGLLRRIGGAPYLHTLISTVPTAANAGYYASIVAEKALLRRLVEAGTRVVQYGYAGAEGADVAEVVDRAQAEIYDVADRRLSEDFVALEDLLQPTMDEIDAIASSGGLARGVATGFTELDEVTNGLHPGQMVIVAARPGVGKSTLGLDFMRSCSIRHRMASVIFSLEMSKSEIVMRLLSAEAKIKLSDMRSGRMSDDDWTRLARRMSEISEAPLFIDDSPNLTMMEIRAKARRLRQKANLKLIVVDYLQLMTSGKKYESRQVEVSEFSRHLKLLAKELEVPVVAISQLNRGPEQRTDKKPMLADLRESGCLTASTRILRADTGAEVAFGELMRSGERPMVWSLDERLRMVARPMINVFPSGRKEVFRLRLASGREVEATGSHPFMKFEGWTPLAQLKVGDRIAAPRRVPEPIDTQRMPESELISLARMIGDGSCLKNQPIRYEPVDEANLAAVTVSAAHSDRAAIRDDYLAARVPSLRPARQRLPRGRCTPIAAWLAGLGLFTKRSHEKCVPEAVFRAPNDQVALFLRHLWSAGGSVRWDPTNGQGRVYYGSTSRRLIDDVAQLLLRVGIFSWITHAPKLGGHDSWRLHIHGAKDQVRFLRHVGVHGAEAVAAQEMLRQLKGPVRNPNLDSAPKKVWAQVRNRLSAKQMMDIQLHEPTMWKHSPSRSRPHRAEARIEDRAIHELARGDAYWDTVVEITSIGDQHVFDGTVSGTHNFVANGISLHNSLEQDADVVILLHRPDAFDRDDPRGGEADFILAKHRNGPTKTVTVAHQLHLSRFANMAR

[10] = biological target: T3, Protein RecA (Mycobacterium tuberculosis, UniProt P9WHJ3); experiment: Fluorescence Cell-Free Homogeneous Dose Retest to Identify Inhibitors of RecA-Intein Splicing Activity. [Related pubchem assays (depositor defined):AID2097, AID2223, AID489010, AID492950]; type: functional
T3 sequence (P9WHJ3 whole entry): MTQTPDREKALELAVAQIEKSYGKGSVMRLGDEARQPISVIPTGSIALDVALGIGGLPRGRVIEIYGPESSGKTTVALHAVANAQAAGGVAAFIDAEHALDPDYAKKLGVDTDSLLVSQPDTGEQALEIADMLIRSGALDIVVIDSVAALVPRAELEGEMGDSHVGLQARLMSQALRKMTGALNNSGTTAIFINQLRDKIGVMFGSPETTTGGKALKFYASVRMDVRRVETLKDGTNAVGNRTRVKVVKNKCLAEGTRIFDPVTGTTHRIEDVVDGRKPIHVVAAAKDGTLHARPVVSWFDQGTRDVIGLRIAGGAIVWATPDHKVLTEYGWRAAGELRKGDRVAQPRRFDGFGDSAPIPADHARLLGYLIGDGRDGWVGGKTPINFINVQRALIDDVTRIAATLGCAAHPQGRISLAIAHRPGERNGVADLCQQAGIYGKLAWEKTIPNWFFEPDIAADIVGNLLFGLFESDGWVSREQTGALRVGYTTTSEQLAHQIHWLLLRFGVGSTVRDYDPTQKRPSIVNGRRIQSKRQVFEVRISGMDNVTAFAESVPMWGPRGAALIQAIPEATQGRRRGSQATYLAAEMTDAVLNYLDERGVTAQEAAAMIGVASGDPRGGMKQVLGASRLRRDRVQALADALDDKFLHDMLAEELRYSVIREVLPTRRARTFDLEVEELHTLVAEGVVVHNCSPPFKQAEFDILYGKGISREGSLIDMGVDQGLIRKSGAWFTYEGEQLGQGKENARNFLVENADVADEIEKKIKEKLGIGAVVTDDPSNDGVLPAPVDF

[11] = biological target: T4, Caspase-6 (Homo sapiens, UniProt P55212); experiment: human caspase-6 inhibitors, dose response, biochemical, VEID-R110 fluorescence, cherry-pick (AID 720632)
T4 sequence (P55212 whole entry): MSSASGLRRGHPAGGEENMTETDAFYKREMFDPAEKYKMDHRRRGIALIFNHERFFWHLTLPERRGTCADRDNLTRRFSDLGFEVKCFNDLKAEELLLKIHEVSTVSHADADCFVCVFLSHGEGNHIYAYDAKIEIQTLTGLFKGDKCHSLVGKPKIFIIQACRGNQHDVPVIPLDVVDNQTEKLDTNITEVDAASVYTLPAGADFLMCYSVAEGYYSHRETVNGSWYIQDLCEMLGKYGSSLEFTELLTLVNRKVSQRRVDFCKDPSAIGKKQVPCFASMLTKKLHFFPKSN

[12] = Shn3 3'UTR reporter inhibitors, dose response, cell-based, Clone20 osteoblasts, firefly luciferase, cherry-picked (AID 624132); type: functional;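 also: firefly luciferase luminescence from reporter carrying the Shn3 3'UTR in osteoblasts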
[13] = HepG2 cell cytotoxicity, dose response, cytotoxicity control for Shn3 inhibitor project, CellTiter-Glo, cherry-picked (AID 624134); type: functional, cell-based
[14] = control 3'UTR Renilla luciferase suppression, dose response, counter-screen for Shn3 inhibitor project, cell-based, Clone20-Shn3RL, cherry-picked (AID 624133); type: functional
[15] = biological target: T5, Galanin receptor type 3 (Homo sapiens, UniProt O60755); experiment: Fluorescence-based cell-based primary high throughput dose response assay to identify antagonists of the Galanin Receptor 3 (GalR3).; type: functional
T5 sequence (O60755 whole entry): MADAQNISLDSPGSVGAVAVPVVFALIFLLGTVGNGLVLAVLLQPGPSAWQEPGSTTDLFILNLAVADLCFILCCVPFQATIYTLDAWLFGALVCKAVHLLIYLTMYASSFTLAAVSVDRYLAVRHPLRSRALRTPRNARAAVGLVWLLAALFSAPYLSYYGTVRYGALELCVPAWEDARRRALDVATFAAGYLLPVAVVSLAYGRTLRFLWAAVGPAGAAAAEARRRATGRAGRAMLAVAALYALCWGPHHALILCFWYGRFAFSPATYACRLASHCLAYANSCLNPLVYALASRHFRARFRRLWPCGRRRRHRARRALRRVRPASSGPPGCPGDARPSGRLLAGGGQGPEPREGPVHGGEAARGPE

[16] = cells; type: functional, cell-based; conditions: HEK-CNG
[17] = biological target: T6, COUP transcription factor 2 (Homo sapiens, UniProt P24468); experiment: Luminescence-based cell-based high throughput dose response assay to identify inhibitors of COUP-TFII (NR2F2).; type: functional;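 also: HEK293 cells transiently cotransfected with COUP-TFII expression vector and reporter; luciferase reporter luminescence driven by COUP-TFII from the pX2-168 reporter plasmid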
T6 sequence (P24468 whole entry): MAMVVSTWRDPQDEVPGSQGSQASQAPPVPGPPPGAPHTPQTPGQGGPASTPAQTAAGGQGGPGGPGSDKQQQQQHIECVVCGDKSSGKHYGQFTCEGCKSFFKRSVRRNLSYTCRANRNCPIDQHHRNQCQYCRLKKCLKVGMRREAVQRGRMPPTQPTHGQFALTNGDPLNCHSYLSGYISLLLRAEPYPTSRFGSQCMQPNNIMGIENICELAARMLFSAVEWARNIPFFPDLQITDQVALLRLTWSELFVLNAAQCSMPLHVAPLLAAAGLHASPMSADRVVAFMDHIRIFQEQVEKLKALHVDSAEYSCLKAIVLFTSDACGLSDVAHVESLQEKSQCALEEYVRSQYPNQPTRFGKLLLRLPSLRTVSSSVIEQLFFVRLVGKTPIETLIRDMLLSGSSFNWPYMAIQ

[18] = IGROV1 ovarian cancer cell cytotoxicity, dose response, PAX8 inhibitor project, plate reader, dry powder samples (AID 743043); type: functional, cell-based; conditions: IGROV-1

**Q.** For `N#Cc1c(N)sc2c1CCN(CCc1ccccc1)C2`, which IC50 [1] is on record?
**A.** Its IC50 is > 29.9 µM (inactive).

**Q.** And the EC50 [2]?
**A.** Its EC50 is 1.58 µM (active).

**Q.** What about the IC50 [3] of the same compound?
**A.** The IC50 was 9.09 µM (active).

**Q.** What about the EC50 [4] of the same compound?
**A.** Its EC50 is > 29.9 µM (inactive).

**Q.** With `C[C@@H]1CCCCO[C@@H](CN(C)C(=O)NC2CCCCC2)[C@H](C)CN([C@H](C)CO)C(=O)c2cc(NS(=O)(=O)c3ccc(Cl)cc3)ccc2O1` as the compound, how does the AC50 [5] read?
**A.** The AC50 was 7.57 µM (active).

**Q.** What about the AC50 [6] of the same compound?
**A.** Its AC50 is 15.7 µM (active).

**Q.** And the AC50 [7]?
**A.** The AC50 was 38.3 µM (active).

**Q.** What about the AC50 [8] of the same compound?
**A.** The AC50 was > 70 µM (inactive).

**Q.** Which AC50 [9] does the source give for `CC1=NN(c2ccc(S(=O)(=O)O)cc2Cl)C(=O)C1` here?
**A.** Its AC50 is 4.45 µM (active).

**Q.** What about the EC50 [10] of the same compound?
**A.** Its EC50 is 9.45 µM (active).

**Q.** What about the AC50 [11] of the same compound?
**A.** The AC50 was 19 µM (active).

**Q.** What does the source list for `O=C(N[C@@H](Cc1cccnc1)C(=O)N1CCC[C@H]1C(=O)NCCc1ccccc1Cl)C1CCCC1`?
**A.** IC50 [1]: > 29.9 µM (inactive); EC50 [2]: 2.91 µM (active); IC50 [3]: 3.72 µM (active); EC50 [4]: > 29.9 µM (inactive)

**Q.** Which results are given for `CCCCCCn1c(NCC)nc2c1c(=O)n(C)c(=O)n2C`?
**A.** AC50 [12]: 0.834 µM (active); AC50 [13]: 2.55 µM (active); AC50 [14]: 9.18 µM (active); IC50 [15]: > 1.11 µM (active); EC50 [16]: > 29.9 µM (inactive); IC50 [17]: 9.46 µM (active)

**Q.** What does the source list for `Oc1cnnc(Nc2ccccc2)n1`?
**A.** IC50 [1]: > 29.9 µM (inactive); EC50 [2]: 4.6 µM (active); IC50 [3]: > 29.9 µM (inactive); EC50 [4]: > 29.9 µM (inactive)

**Q.** What does the source list for `C[C@@H]1CN([C@H](C)CO)C(=O)c2cc(NC(=O)NC3CCCCC3)ccc2O[C@@H](C)CCCCO[C@H]1CN(C)Cc1ccc(C(F)(F)F)cc1`?
**A.** AC50 [5]: 6.85 µM (active); AC50 [6]: 25.7 µM (active); AC50 [7]: 12.7 µM (active); AC50 [18]: 24.8 µM (active); AC50 [8]: 54.1 µM (active)

**Q.** Which IC50 [15] does the source give for `Cc1cc2c(ccc3c2no[n+]3[O-])nn1` here?
**A.** Its IC50 is > 29.9 µM (inactive).

**Q.** And the EC50 [16]?
**A.** The EC50 was > 29.9 µM (inactive).
